NC(=O)N1c2ccccc2CC(=O)c2ccccc21
solubility (mole fraction)
Details	in DMAc	in DMF	in DMSO	in NMP	in transcutol	in water
288.15 K	0.0256	0.0202	0.0312	0.0346	0.00418	5.42e-06
293.15 K	0.0189	0.0212	0.0339	0.0358	0.00437	5.85e-06
298.15 K	0.0205	0.0174	0.0367	0.0369	0.00456	6.3e-06
303.15 K	0.0222	0.0183	0.0259	0.038	0.00475	6.74e-06
308.15 K	0.0239	0.0193	0.0285	0.0335	0.00495	7.2e-06

From BigSolDB 2.1
